Data taken from PMC9127750, “Structure-based design of CDC42 effector interaction inhibitors for the treatment of cancer” (Cell reports, 2022).
Entries after “also recorded” stand apart in the source; their conditions may differ.

Experiments:
[1] = tested on: MKN-1; experiment: cells; details: Homo sapiens, MKN-1, read-out: IC50 ARN22089
Procedure, shortened: (§1)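 Luminescent ATP-based CellTiterGlo detection quantifies surviving cells. Treatment with compound lasts overnight at 37°C.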

[2] = tested on: COV434; experiment: cells; details: COV434, read-out: IC50 ARN22089
Procedure, shortened: as §1

[3] = tested on: LN229; experiment: cells; details: Homo sapiens, LN-229, read-out: IC50 ARN22089
Procedure, shortened: as §1

[4] = tested on: SK-N-FI; experiment: cells; details: Homo sapiens, read-out: IC50 ARN22089
Procedure, shortened: as §1

[5] = tested on: RERF-LC-Ad2; experiment: cells; details: RERF-LC-Ad2, read-out: IC50 ARN22089
Procedure, shortened: as §1

[6] = tested on: NCI-H2110; experiment: cells; details: NCI-H2110, read-out: IC50 ARN22089
Procedure, shortened: as §1

[7] = tested on: SK-LU-1; experiment: cells; details: Homo sapiens, SK-LU-1, read-out: IC50 ARN22089
Procedure, shortened: as §1

[8] = tested on: A172; experiment: cells; details: Homo sapiens, A 172, read-out: IC50 ARN22089
Procedure, shortened: as §1

[9] = tested on: NCI-H2009; experiment: cells; details: Homo sapiens, NCI-H2009, read-out: IC50 ARN22089
Procedure, shortened: as §1

[10] = tested on: SJSA-1; experiment: cells; details: Homo sapiens, SJSA-1, read-out: IC50 ARN22089
Procedure, shortened: as §1

[11] = tested on: COR-L279; experiment: cells; details: Homo sapiens, COR-L279, read-out: IC50 ARN22089
Procedure, shortened: as §1

[12] = tested on: SW620; experiment: cells; details: Homo sapiens, SW-620, read-out: IC50 ARN22089
Procedure, shortened: as §1

[13] = tested on: NCI-H2286; experiment: cells; details: Homo sapiens, NCI-H2286, read-out: IC50 ARN22089
Procedure, shortened: as §1

[14] = tested on: NCI-H1563; experiment: cells; details: Homo sapiens, NCI-H1563, read-out: IC50 ARN22089
Procedure, shortened: as §1

[15] = tested on: DU-145; experiment: cells; details: Homo sapiens, DU-145, read-out: IC50 ARN22089
Procedure, shortened: as §1

[16] = tested on: HCC38; experiment: cells; details: Homo sapiens, HCC38, read-out: IC50 ARN22089
Procedure, shortened: as §1

[17] = tested on: PC3; experiment: cells; details: Homo sapiens, PC-3, read-out: IC50 ARN22089
Procedure, shortened: as §1

[18] = tested on: SNU840; experiment: cells; details: SNU-840, read-out: IC50 ARN22089
Procedure, shortened: as §1

[19] = tested on: OV56; experiment: cells; details: OV56, read-out: IC50 ARN22089
Procedure, shortened: as §1

[20] = tested on: KG-1; experiment: cells; details: Homo sapiens, KG-1, read-out: IC50 ARN22089
Procedure, shortened: as §1

[21] = tested on: EFM-192A; experiment: cells; details: read-out: IC50 ARN22089
Procedure, shortened: as §1

[22] = tested on: SK-N-SH; experiment: cells; details: Homo sapiens, read-out: IC50 ARN22089
Procedure, shortened: as §1

[23] = tested on: Ishikawa; experiment: cells; details: Homo sapiens, read-out: IC50 ARN22089
Procedure, shortened: as §1

[24] = tested on: LOVO; experiment: cells; details: Homo sapiens, read-out: IC50 ARN22089
Procedure, shortened: as §1

[25] = tested on: Hep3B2.1-7; experiment: cells; details: read-out: IC50 ARN22089
Procedure, shortened: as §1

[26] = tested on: OCI-AML5; experiment: cells; details: Homo sapiens, OCI-AML-5, read-out: IC50 ARN22089
Procedure, shortened: as §1

[27] = tested on: MDAMB231; experiment: cells; details: Homo sapiens, MDA-MB-231, read-out: IC50 ARN22089
Procedure, shortened: as §1

[28] = tested on: NCI-H1838; experiment: cells; details: Homo sapiens, NCI-H1838, read-out: IC50 ARN22089
Procedure, shortened: as §1

[29] = tested on: SK-N-MC; experiment: cells; details: Homo sapiens, read-out: IC50 ARN22089
Procedure, shortened: as §1

[30] = tested on: AsPC-1; experiment: cells; details: Homo sapiens, ASPC1, read-out: IC50 ARN22089
Procedure, shortened: as §1

[31] = tested on: J82; experiment: cells; details: Homo sapiens, J82, read-out: IC50 ARN22089
Procedure, shortened: as §1

[32] = tested on: DV90; experiment: cells; details: Homo sapiens, DV-90, read-out: IC50 ARN22089
Procedure, shortened: as §1

[33] = tested on: BEN; experiment: cells; details: read-out: IC50 ARN22089
Procedure, shortened: as §1

[34] = tested on: U-937; experiment: cells; details: Homo sapiens, U-937, read-out: IC50 ARN22089
Procedure, shortened: as §1

[35] = tested on: NCI-H1703; experiment: cells; details: Homo sapiens, NCI-H1703, read-out: IC50 ARN22089
Procedure, shortened: as §1

[36] = tested on: U87MG; experiment: cells; details: Homo sapiens, U-87 MG, read-out: IC50 ARN22089
Procedure, shortened: as §1

[37] = tested on: Caki-2; experiment: cells; details: Homo sapiens, CAKI-2, read-out: IC50 ARN22089
Procedure, shortened: as §1

[38] = tested on: RL95-2; experiment: cells; details: Homo sapiens, RL95-2, read-out: IC50 ARN22089
Procedure, shortened: as §1

[39] = tested on: MCF-7; experiment: cells; details: Homo sapiens, MCF7, read-out: IC50 ARN22089
Procedure, shortened: as §1

[40] = tested on: HL-60; experiment: cells; details: Homo sapiens, HL-60, read-out: IC50 ARN22089
Procedure, shortened: as §1

[41] = tested on: RKO; experiment: cells; details: Homo sapiens, read-out: IC50 ARN22089
Procedure, shortened: as §1

[42] = PK determination; details: mice
Experimental: The vehicle for all administration routes was PEG400/Tween 80/Saline solution at 10/10/80% in volume, respectively. […] Control animals treated with vehicle only were also included in the experimental protocol. […] A 50 μL aliquot was transferred into a 96-Deep Well plate and 150 μL of extraction solution was added. The extraction solution was consisting of cold CH3CN spiked with 200 nM of internal standard. […] Eight microliters of supernatant were then transferred into a 96-Deep Well plate and 80μL of H2O was added. A reference standard of the compound was spiked in naïve mouse plasma to prepare a calibration curve over a 1 nM – 10 μM range. […] Calibrators and quality controls were extracted with the same extraction solution used for the plasma samples. The samples were analyzed on a Waters ACQUITY UPLC/MS TQD system (Waters Inc. Milford, USA) consisting of a TQD (Triple Quadrupole Detector) Mass Spectrometer equipped with an Electrospray Ionization interface and a Photodiode Array eλ Detector. […] 0.1% HCOOH in H2O (A) and 0.1% HCOOH in CH3CN (B) were used as mobile phase with a linear gradient from 50 to 100% B in 2 min with the flow rate set to 0.5 mL/min. Electrospray ionization was applied in positive mode. Plasma levels of the parent compound was quantified by monitoring the MRM peak areas.

Compound CN(C)c1cccc(Nc2cc(-c3ccccc3)nc(C3CCNCC3)n2)c1 [ARN22089, N1,N1-dimethyl-N3-(6-phenyl-2-(piperidin-4-yl)pyrimidin-4-yl)benzene-1,3-diamine] has an IC50 [1] of 12 µM, an IC50 [2] of 5.5 µM and an IC50 [3] of 7.8 µM. It also gave an IC50 [4] of 11 µM, an IC50 [5] of 9.2 µM and an IC50 [6] of 21 µM. It also gave an IC50 [7] of 7.8 µM, an IC50 [8] of 5.8 µM and an IC50 [9] of 15 µM. It also gave an IC50 [10] of 9.5 µM, an IC50 [11] of 12 µM and an IC50 [12] of 5.9 µM. It also gave an IC50 [13] of 14 µM, an IC50 [14] of 16 µM and an IC50 [15] of 11 µM. For the same compound, the IC50 [16] was 10 µM, the IC50 [17] was 9.1 µM and the IC50 [18] was 6.5 µM. For the same compound, the IC50 [19] was 13 µM, the IC50 [20] was 14 µM and the IC50 [21] was 14 µM. For the same compound, the IC50 [22] was 8.1 µM, the IC50 [23] was 8.5 µM and the IC50 [24] was 7.8 µM. It also gave an IC50 [25] of 3.6 µM, an IC50 [26] of 15 µM and an IC50 [27] of 10 µM. For the same compound, the IC50 [28] was 17 µM, the IC50 [29] was 4.7 µM and the IC50 [30] was 9.9 µM. It also gave an IC50 [31] of 5.9 µM, an IC50 [32] of 29 µM and an IC50 [33] of 12 µM. The IC50 [34] was 3.5 µM, the IC50 [35] was 37 µM and the IC50 [36] was 6.1 µM. For the same compound, the IC50 [37] was 9.9 µM, the IC50 [38] was 5.7 µM and the IC50 [39] was 7.3 µM. The IC50 [40] was 8.1 µM, the IC50 [41] was 3.9 µM and the “tolerability in experimental animals” value [42] was “well tolerated; also recorded: did not observe any overt toxicity”. The oral bioavailability ([42]; 10 mg/kg PO) was “low bioavailability”.
